Reference: ChEMBL document CHEMBL4507268 (2021)

Key:
[1] = target: Serine/threonine-protein kinase PAK 4 (Homo sapiens) (UniProt O96013); settings: Compound concentration 1000.0 nM
[2] = target: Myotonin-protein kinase (Homo sapiens) (UniProt Q09013); settings: Compound concentration 1000.0 nM
[3] = target: Muscarinic acetylcholine receptor M2 (Homo sapiens) (UniProt P08172); settings: Compound concentration 10.0 uM
[4] = target: Cyclin-dependent kinase 4 (Homo sapiens) (UniProt P11802); settings: Compound concentration 1000.0 nM
Sequence of Cyclin-dependent kinase 4 (Homo sapiens) (P11802 whole entry): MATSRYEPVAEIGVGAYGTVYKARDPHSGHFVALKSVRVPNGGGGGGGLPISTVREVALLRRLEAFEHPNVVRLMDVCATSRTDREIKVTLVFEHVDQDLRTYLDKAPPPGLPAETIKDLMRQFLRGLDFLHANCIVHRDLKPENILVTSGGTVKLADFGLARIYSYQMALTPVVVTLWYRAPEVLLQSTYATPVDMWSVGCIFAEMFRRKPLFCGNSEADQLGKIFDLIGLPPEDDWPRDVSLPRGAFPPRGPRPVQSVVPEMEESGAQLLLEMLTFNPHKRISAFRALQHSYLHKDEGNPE

[5] = target: STE20-like serine/threonine-protein kinase (Homo sapiens) (UniProt Q9H2G2); settings: Compound concentration 1000.0 nM
Sequence of STE20-like serine/threonine-protein kinase (Homo sapiens) (Q9H2G2 whole entry, looked up): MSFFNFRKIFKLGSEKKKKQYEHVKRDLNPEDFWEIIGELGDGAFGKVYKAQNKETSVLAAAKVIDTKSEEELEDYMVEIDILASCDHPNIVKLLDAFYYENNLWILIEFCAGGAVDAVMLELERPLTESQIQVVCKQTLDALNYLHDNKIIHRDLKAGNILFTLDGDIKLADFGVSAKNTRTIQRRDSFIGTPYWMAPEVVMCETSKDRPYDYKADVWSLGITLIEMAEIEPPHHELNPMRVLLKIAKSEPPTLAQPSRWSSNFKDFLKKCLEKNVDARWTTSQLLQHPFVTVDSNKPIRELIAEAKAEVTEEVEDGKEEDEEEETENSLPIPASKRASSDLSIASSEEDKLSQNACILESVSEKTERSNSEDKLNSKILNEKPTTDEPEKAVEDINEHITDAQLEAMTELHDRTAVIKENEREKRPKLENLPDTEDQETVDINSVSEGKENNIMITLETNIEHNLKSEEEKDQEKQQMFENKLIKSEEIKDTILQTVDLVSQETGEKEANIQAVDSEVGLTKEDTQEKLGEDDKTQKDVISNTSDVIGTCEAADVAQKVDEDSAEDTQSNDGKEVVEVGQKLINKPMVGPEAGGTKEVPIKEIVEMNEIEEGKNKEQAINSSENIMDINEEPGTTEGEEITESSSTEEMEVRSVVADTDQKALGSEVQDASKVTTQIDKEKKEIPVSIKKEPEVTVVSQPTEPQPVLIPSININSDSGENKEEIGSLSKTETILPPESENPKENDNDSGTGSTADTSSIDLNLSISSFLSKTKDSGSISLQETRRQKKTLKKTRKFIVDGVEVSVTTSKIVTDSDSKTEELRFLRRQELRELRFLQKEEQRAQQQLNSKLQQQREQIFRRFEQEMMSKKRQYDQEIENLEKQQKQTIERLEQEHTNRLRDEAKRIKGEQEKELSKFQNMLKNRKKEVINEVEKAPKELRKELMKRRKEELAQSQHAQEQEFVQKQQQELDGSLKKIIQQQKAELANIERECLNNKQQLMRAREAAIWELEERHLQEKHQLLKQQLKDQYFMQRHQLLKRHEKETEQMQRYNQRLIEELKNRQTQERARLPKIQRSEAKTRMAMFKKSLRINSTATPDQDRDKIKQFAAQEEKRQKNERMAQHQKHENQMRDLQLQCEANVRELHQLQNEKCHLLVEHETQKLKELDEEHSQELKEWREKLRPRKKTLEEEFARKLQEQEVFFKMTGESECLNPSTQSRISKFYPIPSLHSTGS

[6] = target: Serine/threonine-protein kinase pim-3 (Homo sapiens) (UniProt Q86V86); settings: Compound concentration 1000.0 nM
[7] = target: T1, Tyrosine-protein kinase TXK (Homo sapiens) (UniProt P42681); settings: Compound concentration 1000.0 nM
T1 sequence (whole entry): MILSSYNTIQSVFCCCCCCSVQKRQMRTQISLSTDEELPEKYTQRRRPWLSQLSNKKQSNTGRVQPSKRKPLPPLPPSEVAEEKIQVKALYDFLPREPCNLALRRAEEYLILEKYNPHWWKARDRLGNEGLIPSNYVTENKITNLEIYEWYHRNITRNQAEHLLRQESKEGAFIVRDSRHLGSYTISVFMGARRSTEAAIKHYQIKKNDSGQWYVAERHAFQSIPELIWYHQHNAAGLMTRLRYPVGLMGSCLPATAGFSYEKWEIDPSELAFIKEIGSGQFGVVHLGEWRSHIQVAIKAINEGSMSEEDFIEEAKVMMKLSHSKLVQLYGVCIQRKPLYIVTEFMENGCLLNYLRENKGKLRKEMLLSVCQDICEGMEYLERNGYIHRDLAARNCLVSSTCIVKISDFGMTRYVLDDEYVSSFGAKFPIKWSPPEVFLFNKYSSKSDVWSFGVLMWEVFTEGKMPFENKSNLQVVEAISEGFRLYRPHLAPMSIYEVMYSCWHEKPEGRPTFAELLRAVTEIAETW

[8] = target: Angiopoietin-1 receptor (Homo sapiens) (UniProt Q02763); settings: Compound concentration 1000.0 nM
[9] = target: Beta-2 adrenergic receptor (Homo sapiens) (UniProt P07550); settings: Compound concentration 10.0 uM
[10] = target: Serine/threonine-protein kinase VRK2 (Homo sapiens) (UniProt Q86Y07); settings: Compound concentration 1000.0 nM
Sequence of Serine/threonine-protein kinase VRK2 (Homo sapiens) (Q86Y07 whole entry): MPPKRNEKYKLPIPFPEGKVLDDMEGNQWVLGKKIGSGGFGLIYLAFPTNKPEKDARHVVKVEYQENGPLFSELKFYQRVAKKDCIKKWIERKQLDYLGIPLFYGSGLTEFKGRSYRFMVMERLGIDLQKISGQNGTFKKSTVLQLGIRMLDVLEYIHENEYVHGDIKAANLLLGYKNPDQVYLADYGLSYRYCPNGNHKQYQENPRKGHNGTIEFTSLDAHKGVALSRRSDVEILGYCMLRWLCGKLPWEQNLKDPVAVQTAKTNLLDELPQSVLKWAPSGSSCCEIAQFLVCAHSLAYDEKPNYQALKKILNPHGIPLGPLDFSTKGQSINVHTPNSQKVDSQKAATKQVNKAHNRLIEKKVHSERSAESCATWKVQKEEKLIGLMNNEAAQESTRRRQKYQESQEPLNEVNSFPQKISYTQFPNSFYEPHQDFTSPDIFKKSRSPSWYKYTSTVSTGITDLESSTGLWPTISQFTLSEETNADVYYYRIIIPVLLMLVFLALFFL

[11] = test system: Receptor-type tyrosine-protein kinase FLT3 (Homo sapiens), P36888 [UNDEFINED MUTATION]; settings: Compound concentration 1000.0 nM
Sequence of Receptor-type tyrosine-protein kinase FLT3 (Homo sapiens), P36888 [UNDEFINED MUTATION] (P36888 whole entry, looked up, change not shown): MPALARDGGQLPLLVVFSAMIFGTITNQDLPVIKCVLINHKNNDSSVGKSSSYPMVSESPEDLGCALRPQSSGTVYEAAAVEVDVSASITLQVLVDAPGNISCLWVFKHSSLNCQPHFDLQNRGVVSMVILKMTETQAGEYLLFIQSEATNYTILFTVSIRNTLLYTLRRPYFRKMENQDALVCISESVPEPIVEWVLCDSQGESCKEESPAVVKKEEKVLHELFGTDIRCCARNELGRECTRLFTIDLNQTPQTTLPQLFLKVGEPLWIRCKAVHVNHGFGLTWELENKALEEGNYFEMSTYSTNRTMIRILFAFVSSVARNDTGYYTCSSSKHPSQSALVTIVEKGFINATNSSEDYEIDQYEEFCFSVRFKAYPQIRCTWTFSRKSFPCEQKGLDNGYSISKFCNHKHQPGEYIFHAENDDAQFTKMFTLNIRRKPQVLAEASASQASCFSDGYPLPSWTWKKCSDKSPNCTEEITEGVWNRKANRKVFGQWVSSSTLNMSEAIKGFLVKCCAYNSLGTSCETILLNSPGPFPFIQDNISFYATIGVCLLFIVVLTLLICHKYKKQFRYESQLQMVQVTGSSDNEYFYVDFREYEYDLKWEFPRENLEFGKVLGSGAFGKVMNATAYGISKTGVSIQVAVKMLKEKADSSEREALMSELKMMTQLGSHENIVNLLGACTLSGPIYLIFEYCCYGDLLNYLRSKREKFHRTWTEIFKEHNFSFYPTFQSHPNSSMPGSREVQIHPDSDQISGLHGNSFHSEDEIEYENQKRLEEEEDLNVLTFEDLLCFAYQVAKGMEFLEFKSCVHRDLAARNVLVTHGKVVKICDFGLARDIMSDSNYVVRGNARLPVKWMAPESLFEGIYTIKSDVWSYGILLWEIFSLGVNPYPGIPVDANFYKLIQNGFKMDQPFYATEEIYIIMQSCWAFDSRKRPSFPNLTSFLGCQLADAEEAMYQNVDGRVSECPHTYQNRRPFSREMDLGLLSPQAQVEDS

[12] = target: Cyclin-dependent kinase 11B (Homo sapiens) (UniProt P21127); settings: Compound concentration 1000.0 nM
Sequence of Cyclin-dependent kinase 11B (Homo sapiens) (P21127 whole entry): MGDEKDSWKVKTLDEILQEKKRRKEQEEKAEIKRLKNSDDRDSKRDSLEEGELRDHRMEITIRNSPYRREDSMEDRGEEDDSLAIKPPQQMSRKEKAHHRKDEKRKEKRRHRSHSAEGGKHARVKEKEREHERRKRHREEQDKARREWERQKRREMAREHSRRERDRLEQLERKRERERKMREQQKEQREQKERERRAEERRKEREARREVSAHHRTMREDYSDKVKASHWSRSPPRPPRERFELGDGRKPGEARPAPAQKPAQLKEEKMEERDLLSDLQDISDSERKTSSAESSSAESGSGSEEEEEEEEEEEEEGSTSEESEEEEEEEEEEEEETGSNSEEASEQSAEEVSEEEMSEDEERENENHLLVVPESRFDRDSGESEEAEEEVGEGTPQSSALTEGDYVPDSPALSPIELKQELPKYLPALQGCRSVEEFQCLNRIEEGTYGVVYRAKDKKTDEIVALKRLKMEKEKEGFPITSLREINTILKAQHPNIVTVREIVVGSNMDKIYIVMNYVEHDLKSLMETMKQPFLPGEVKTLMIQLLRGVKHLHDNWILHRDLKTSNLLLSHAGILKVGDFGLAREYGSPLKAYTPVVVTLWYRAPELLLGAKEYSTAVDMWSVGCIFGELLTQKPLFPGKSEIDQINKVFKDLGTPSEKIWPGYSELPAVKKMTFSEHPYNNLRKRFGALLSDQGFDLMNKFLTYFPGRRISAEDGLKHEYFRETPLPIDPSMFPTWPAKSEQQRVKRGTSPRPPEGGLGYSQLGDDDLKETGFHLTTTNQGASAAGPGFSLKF

[13] = target: T2, Myosin-IIIb (Homo sapiens) (UniProt Q8WXR4); settings: Compound concentration 1000.0 nM
T2 sequence (whole entry): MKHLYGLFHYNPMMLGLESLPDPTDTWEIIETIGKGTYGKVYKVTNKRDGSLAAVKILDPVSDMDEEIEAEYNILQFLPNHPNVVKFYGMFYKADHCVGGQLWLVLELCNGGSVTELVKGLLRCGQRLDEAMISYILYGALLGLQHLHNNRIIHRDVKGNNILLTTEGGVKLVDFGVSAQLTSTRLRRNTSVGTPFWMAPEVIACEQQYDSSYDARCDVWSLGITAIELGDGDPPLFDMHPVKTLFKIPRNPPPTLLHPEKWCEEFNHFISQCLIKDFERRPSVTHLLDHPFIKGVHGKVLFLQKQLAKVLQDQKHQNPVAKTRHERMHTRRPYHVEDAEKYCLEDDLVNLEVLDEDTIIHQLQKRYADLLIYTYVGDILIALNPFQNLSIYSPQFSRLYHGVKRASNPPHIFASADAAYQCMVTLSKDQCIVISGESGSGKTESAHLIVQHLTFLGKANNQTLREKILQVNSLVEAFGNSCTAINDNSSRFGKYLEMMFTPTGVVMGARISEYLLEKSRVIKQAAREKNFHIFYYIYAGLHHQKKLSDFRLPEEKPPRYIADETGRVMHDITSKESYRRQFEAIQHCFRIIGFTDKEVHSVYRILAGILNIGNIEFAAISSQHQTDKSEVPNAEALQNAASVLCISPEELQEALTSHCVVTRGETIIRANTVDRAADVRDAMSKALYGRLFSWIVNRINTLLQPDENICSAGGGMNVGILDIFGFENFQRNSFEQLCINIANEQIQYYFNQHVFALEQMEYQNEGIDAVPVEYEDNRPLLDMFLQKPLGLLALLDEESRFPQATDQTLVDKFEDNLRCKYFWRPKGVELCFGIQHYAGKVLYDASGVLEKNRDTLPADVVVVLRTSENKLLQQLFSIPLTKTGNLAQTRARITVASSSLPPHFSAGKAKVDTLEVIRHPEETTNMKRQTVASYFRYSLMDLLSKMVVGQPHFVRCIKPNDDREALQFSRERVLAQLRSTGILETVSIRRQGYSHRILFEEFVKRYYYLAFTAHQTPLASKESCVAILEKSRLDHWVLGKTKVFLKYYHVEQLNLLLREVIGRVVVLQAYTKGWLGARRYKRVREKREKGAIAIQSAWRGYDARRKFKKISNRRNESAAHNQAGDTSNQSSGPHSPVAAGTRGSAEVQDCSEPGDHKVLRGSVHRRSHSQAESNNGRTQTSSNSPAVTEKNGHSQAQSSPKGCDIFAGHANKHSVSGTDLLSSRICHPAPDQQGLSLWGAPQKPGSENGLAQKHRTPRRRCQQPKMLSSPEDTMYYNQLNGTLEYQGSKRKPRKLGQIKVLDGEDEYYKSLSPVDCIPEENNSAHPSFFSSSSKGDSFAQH

Sequence of Myotonin-protein kinase (Homo sapiens) (Q09013 whole entry): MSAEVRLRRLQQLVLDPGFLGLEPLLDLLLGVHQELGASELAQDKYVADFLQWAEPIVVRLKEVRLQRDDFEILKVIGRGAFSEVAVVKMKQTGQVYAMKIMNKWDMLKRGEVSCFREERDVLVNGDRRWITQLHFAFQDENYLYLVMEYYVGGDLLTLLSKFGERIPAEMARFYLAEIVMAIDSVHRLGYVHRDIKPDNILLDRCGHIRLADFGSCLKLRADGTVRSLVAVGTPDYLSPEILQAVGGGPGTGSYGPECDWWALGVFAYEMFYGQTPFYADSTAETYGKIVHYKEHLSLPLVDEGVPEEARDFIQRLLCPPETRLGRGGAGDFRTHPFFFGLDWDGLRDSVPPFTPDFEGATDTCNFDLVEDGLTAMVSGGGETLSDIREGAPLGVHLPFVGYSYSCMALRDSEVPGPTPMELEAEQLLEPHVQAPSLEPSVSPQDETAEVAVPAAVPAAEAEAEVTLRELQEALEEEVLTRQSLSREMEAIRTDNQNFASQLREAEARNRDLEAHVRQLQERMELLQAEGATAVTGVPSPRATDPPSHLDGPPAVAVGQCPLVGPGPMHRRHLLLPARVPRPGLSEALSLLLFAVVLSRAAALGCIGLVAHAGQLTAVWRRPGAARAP

Cc1nc(C2CCN(C(=O)c3ccc(OC(F)(F)F)cc3N)CC2)c2ncc(N3CCN(C)CC3)cc2n1 [BAY-693]
inactive: residual activity [1] 100% | residual activity [2] 100% | inhibition [3] -1% | residual activity [4] 99% | residual activity [5] 97% | residual activity [6] 100% | residual activity [7] 100% | residual activity [8] 81% | inhibition [9] -5.65% | residual activity [10] 100% | residual activity [11] 84% | residual activity [12] 87% | residual activity [13] 71%

CN1CCN(c2cnc3c(C4CCN(C(=O)c5ccc(OC(F)(F)F)cc5N)CC4)ncnc3c2)CC1 [BAY-885]
inactive: residual activity [1] 91% | residual activity [2] 89% | inhibition [3] -0.56% | residual activity [4] 98% | residual activity [5] 96% | residual activity [6] 100% | residual activity [7] 88% | residual activity [8] 74% | inhibition [9] -4.21% | residual activity [10] 100% | residual activity [11] 100% | residual activity [12] 82% | residual activity [13] 73%
